Data on 99 molecules can be found in ChEMBL document CHEMBL3988442, “University of Dundee, Small-Polar-MMV Screening Library” (2021).

This assay addresses T1, Coenzyme A biosynthesis bifunctional protein CoaBC (Mycobacterium tuberculosis (strain ATCC 25618 / H37Rv), UniProt P9WNZ1).
T1 sequence (P9WNZ1 whole entry): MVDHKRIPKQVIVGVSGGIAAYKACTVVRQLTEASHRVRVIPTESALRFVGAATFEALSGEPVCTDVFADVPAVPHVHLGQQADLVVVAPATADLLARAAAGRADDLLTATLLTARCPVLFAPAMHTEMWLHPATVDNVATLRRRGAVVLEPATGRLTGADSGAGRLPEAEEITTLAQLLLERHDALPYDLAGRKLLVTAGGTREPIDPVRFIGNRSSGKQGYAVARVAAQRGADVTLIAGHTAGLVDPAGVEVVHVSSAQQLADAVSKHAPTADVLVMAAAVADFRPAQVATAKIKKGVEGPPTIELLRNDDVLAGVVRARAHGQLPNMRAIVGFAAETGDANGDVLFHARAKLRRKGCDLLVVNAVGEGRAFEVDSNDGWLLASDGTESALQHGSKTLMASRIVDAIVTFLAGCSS
Kind of assay: Biomol Green assay for MtCoaBC inhibitor, OD650 read. The assay is classed as functional.

Where “and” joins values, the source holds several entries; their conditions need not be identical. Equal entries are not always repeated.

One may read the IC50 as the concentration at which inhibition is half-maximal. A high value points to weaker potency. `Cc1nonc1OCCNC(=O)COc1ccc(F)cc1F` gave a concentration for half-maximal inhibition (IC50) above 30.2 µM. With `CC(C)=CCn1ncc(N2CCOCC2)cc1=O` the figure was above 30.2 µM; with `Cc1ccc(-c2cc(C(=O)NCCCc3csc(N)n3)[nH]n2)o1`, above 30.2 µM. With `CSCc1noc(CNC(=O)C2CCN(C(=O)C3CC3)CC2)n1` the figure was above 30.2 µM. With `COCCN(Cc1cnn(C)c1)CC1CCOC1` (centres undefined) the figure was above 30.2 µM; with `Cc1cc(C)c(C(=O)NC(c2nnc3n2CCNCC3)C(C)C)c(C)c1` (centres undefined), above 30.2 µM; with `CCn1ncc2c1NC(=O)CC2c1cnc(-c2ccccn2)nc1` (centres undefined), above 30.2 µM. In the case of `CCn1ncnc1C(C)NC(=O)CC1CCN(C(C)C)CC1` (centres undefined), the 50% inhibitory concentration (IC50) is above 30.2 µM.

Consider `CCc1ncc(C(=O)N2CC[C@@H]3CC[C@H](C2)N3C)cn1`, for which the IC50 was above 30.2 µM. With `NC(=O)CCNC(=O)C1(N2CCCCC2)Cc2ccccc2C1` the figure was above 30.2 µM. With `CC(C)NS(=O)(=O)c1cc(C(=O)O)cc(-n2cc3c(n2)CCC3)c1` the figure was above 50.1 µM; with `CCN(C)C[C@@H]1CN(C(=O)NC2CCCCC2)C[C@@H]1CO`, above 30.2 µM; with `Cn1ccnc1-c1cn(Cc2cn3c(n2)SCC3)nn1`, above 30.2 µM. With `CC(C)N1CC2(CCC1=O)CCN(c1ccnc3ccccc13)CC2` the figure was above 30.2 µM; with `COCCN1CC(C(=O)N(CCN(C)C)Cc2ccc(C)s2)CC1=O` (centres undefined), above 30.2 µM.

`CCc1nc(NCCc2c(C)nn(CC)c2C)c2cnn(C)c2n1` showed an IC50 above 30.2 µM. With `Cc1ccc(C(=O)O)cc1CNC(=O)CN1CC[C@](C)(O)C(C)(C)C1` the figure was above 30.2 µM. With `CN(Cc1nccs1)C1CCN(c2cccc(-c3cscn3)c2)CC1` the figure was above 30.2 µM; with `CCCN(Cc1ccccc1C)C(CC)CO` (centres undefined), above 30.2 µM. With `CC(C)C1CN(C(=O)c2cn3cc(Cl)cnc3n2)CCCN1CC1CC1` (centres undefined) the figure was above 30.2 µM.

The molecule `CS(=O)(=O)c1ccc(CN2C[C@H]3CC[C@@H]2CN(c2ncccn2)C3)cc1` showed an IC50 above 30.2 µM. With `Cc1cccc(CN(C(=O)CCn2cncn2)C(C)C)c1` the figure was above 30.2 µM. With `O=C1O[C@@H]2CN(c3ccc(Cl)cn3)C[C@@H]2N1CCc1ccc(F)cc1` the figure was above 30.2 µM; with `Cc1ccc(CN2CCN(C3CCCC3)CC2CCO)o1` (centres undefined), above 30.2 µM.

The molecule `Cc1cccc(CNC(=O)NCC2CCN(Cc3ncc[nH]3)C2)c1` (centres undefined) showed a 50% inhibitory concentration (IC50) above 30.2 µM. With `CC(C)NC(=O)[C@@H]1C[C@H](N)CN1C(=O)C1(c2ccc(Cl)cc2)CCC1` the figure was above 30.2 µM. With `Cc1nc2c(C(=O)N[C@H]3C[C@H]4CN(C)CCN4C3)cccc2[nH]1` the figure was above 30.2 µM; with `Cc1csc(CN2CCC(C(=O)O)(n3ccc(-c4ccco4)n3)CC2)n1`, above 30.2 µM; with `COc1ccc(NC2CCCN(Cc3cnc(N(C)C)s3)C2)cc1OC` (centres undefined), above 30.2 µM.

With `CCc1cc(NCCN2CCNC2=O)n2nccc2n1`, the 50% inhibitory concentration (IC50) is above 30.2 µM. The molecule `O=C1O[C@@H]2CN(c3cnccn3)C[C@@H]2N1CCCc1ccc(F)cc1` gave a concentration for half-maximal inhibition (IC50) above 30.2 µM. With `COc1ccc(-c2noc(C3CC(C(C)C)=NO3)n2)cc1` (centres undefined) the figure was above 30.2 µM; with `O=C(O)COc1ccc(CN2CCCC(CCc3ccccc3)C2)cc1` (centres undefined), 19.9 µM and 19.6 µM; with `O=c1cc(C2CCNCC2)nc(CCc2ccccn2)[nH]1`, above 30.2 µM. `CN(C)c1ncc(CN2CCCC(Nc3ccc4c(c3)OCCO4)C2)s1` (centres undefined) had an IC50 above 30.2 µM. With `CC(=O)Nc1ccc(Oc2cccc(CN3CCCC3)c2)cc1` the figure was above 50.1 µM; with `O=C(CCC1CCN(C2CCSCC2)CC1)NCC1CCCO1` (centres undefined), above 30.2 µM; with `O=C1CN(Cc2cn(CC3CCCN(C4CCSCC4)C3)nn2)CCN1` (centres undefined), above 30.2 µM. For the molecule `CC1(C)CN(CCC(=O)NCc2cccc(Cl)c2)CC[C@]1(C)O`, the concentration for half-maximal inhibition (IC50) is above 30.2 µM. Molecule `Cc1cnc(C)c(-c2cccc(-c3ccn(CCN4CCCC4)n3)c2)n1` showed a concentration for half-maximal inhibition (IC50) above 30.2 µM. With `Cc1cc(N2CCC(c3ncc[nH]3)CC2)nc(N)n1` the figure was above 30.2 µM; with `CCn1cc(CN(C)Cc2cnn(-c3ccc(F)cc3)c2)cn1`, above 30.2 µM. With `Cc1ccc(C(=O)O)c(N2Cc3cnc(C(C)(C)C)nc3C2)n1` the figure was above 30.2 µM. With `COc1ccc(NC2(C(=O)N3CCCn4cncc4C3)CCCC2)cc1` the figure was above 30.2 µM. In the case of `Cc1nccnc1-n1c(COCC(=O)O)nc2c(C)cccc21`, the IC50 is above 50.1 µM. Consider `O[C@]12CCNC[C@H]1CN(c1ncccc1Cl)CC2`, for which the half-inhibitory concentration (IC50) was above 30.2 µM. With `CN1CCN([C@H]2CCN(C(=O)c3cc(Cl)cn3C)C[C@H]2CCCO)CC1` the figure was above 30.2 µM; with `CC(C)CCn1c(=O)n(CCn2cccc2)c2cc(C(=O)O)cnc21`, above 30.2 µM; with `CSc1nc(C)cc(N2CCC(c3ncc[nH]3)CC2)n1`, above 30.2 µM. With `NC(=O)c1cc2c(nc1Oc1cccc(CN3CCCC3)c1F)CCC2` the figure was above 30.2 µM; with `CN(C)C(C(=O)NCc1cc(C(C)(C)C)n[nH]1)c1ccc(F)cc1` (centres undefined), above 30.2 µM.

As to `COCCC1CCN([C@@H]2c3ccccc3C3(CCNCC3)[C@H]2O)CC1`, the IC50 is above 30.2 µM. With `CCN(CCO)C[C@@H]1CN(C(=O)c2ccc(C)s2)C[C@@H]1CO` the figure was above 30.2 µM; with `Cc1nonc1C1CCCN1Cc1ccc(C(=O)Nc2nccs2)cc1` (centres undefined), above 30.2 µM; with `Cc1ccnc(N2C[C@@H]3CC[C@H](C2)N(CC2CCC2)C3=O)n1`, above 30.2 µM.

In the case of `COc1cccc(Cc2nc3c([nH]2)CC(C)(C)CNC3=O)c1OC`, the concentration for half-maximal inhibition (IC50) was above 30.2 µM. With `CN1C(=O)C2(CCN(c3nccc4occc34)CC2)c2ccccc21` the figure was above 30.2 µM. With `O=C(c1cccnc1SC/C=C/c1ccccc1)N1CCOCC(O)C1` (centres undefined) the figure was above 30.2 µM. The molecule `COCCN(Cc1cnn(C)c1)CC1CCN(C(C)C)CC1` had a 50% inhibitory concentration (IC50) above 30.2 µM.

With `CN(C)C(=O)c1ccc(C(C(=O)O)N(C)Cc2ccccc2Cl)cc1` (centres undefined), the 50% inhibitory concentration (IC50) was above 30.2 µM.

`COCCN(C)CC(=O)N1CCCC2(CCC(=O)N(CC3CC3)C2)C1` (centres undefined) had an IC50 above 30.2 µM. With `O=C(NCCNc1ncccn1)C1CCCC1` the figure was above 30.2 µM; with `CC(C)c1noc(CN2CCN(C(=O)c3cccnc3O)CC2)n1`, above 30.2 µM; with `O=C(CN1CC(n2cccn2)C1)NCCC1=CCCCC1`, above 30.2 µM. With `NC(=O)C1CN(C(=O)Nc2ccccc2Oc2ccccc2Cl)CCO1` (centres undefined) the figure was above 30.2 µM; with `Cc1cc(NC(=O)CN2CCN(c3nccs3)C(C)C2)no1` (centres undefined), above 30.2 µM; with `Cc1n[nH]c(C)c1NC(=O)CN1CCN(c2nccs2)C(C)C1` (centres undefined), above 30.2 µM. `CC(C)c1ncc2c(n1)CN(Cc1nc(-c3ccccn3)no1)CC2` gave a 50% inhibitory concentration (IC50) above 30.2 µM. Molecule `CC(C)c1noc(CN2CCN(C(=O)c3cc(Cl)ccc3F)CC2)n1` had a concentration for half-maximal inhibition (IC50) above 30.2 µM. As for `Cc1nn(C)c(C)c1NC(=O)CN1CCN(c2nccs2)C(C)C1` (centres undefined), the concentration for half-maximal inhibition (IC50) is above 30.2 µM. With `Cc1nn(C)c(Cl)c1C1CCCN1Cc1nc(-c2ccco2)no1` (centres undefined) the figure was above 30.2 µM. With `CCc1ncc2c(n1)CN(Cc1nc(-c3cccs3)no1)CC2` the figure was above 30.2 µM.

`Cc1nn(-c2ccccc2)cc1C(=O)N1CCCC1c1cnn(C)c1` (centres undefined) had an IC50 above 30.2 µM.

The molecule `COc1ccc(Cl)cc1C(=O)NCCNc1cnccn1` had a half-maximal inhibitory concentration (IC50) above 30.2 µM. With `Cn1cnc(S(=O)(=O)NCCN2CCCCCC2)c1Cl` the figure was above 30.2 µM; with `COc1cccc2cc(CNCc3ccc(N4CCCC4)nc3)oc12`, above 30.2 µM; with `Cc1nnc(CN(Cc2ccc3c(c2)OCO3)C2CCCCC2)o1`, above 30.2 µM. With `CCNC(=O)NC(=O)CNC(C)(C)c1ccc2c(c1)OCCO2` the figure was above 30.2 µM; with `CCc1noc(C(C)N2CCN(CCN3CCCC3=O)CC2)n1` (centres undefined), above 30.2 µM. With `CN(Cc1nnc(C2CC2)n1C)C1CCN(Cc2ccncc2)C1` (centres undefined) the figure was above 30.2 µM; with `Cc1cnn(CC2CCCN2Cc2nnc(C)o2)c1` (centres undefined), above 30.2 µM; with `COc1cccc(N2CCC(CNCc3cccc(C#N)c3)C2)c1` (centres undefined), above 30.2 µM. Molecule `COc1ccccc1N1CCC(CNCc2ccc(C#N)cc2)C1` (centres undefined) gave a concentration for half-maximal inhibition (IC50) above 30.2 µM. With `Cc1cnn(CC2CCCN2Cc2nnc(-c3ccccc3)o2)c1` (centres undefined) the figure was above 30.2 µM. `CN1CCOC(CNCc2cccc(OC(F)(F)F)c2)C1` (centres undefined) showed an IC50 above 30.2 µM. With `Cc1cc(C2CCCN(CCNS(=O)(=O)c3ccccc3)C2)n[nH]1` (centres undefined) the figure was above 30.2 µM; with `OC(CN1CCC(c2ccn[nH]2)CC1)c1ccc(F)cc1F` (centres undefined), above 30.2 µM. With `O=C(c1ccc(-n2cnnn2)cc1)N1CCCC(n2ccnc2)C1` (centres undefined) the figure was above 30.2 µM. `Cc1cnn(CC2CCCN2C(=O)c2cccc(S(C)(=O)=O)c2)c1` (centres undefined): the concentration for half-maximal inhibition (IC50) is above 30.2 µM.

`Cc1cccc(NC2CCN(C(=O)Nc3ccccn3)CC2)n1`: the half-inhibitory concentration (IC50) was above 30.2 µM. With `Cc1cccc(NC2CCN(C(=O)Nc3cn[nH]c3)CC2)n1` the figure was above 30.2 µM. With `CN(Cc1ccc(F)cc1)C(=O)NCc1nnc2n1CCC2` the figure was above 30.2 µM.

Turning to `CCc1nccn1CC1CCCN1S(=O)(=O)Cc1ccccc1` (centres undefined), the half-inhibitory concentration (IC50) is above 30.2 µM. With `CC(NC(=O)Nc1cccnc1N1CCCC1)c1ccn(C)c1` (centres undefined) the figure was above 30.2 µM; with `Cc1nn(C)c(Cl)c1C1CCCN1CC(=O)Nc1cccnc1` (centres undefined), above 30.2 µM. With `O=C(Cc1cccc2ccccc12)N1CCC(Nc2cccnn2)CC1` the figure was above 30.2 µM; with `Cc1nc(CN2CCCC2Cn2cncn2)nc2ccccc12` (centres undefined), above 30.2 µM. With `O=C(NCCn1nc2ccccn2c1=O)c1cc[nH]n1` the figure was above 30.2 µM; with `COc1c(C)cc(CNCc2ccnc(N3CCOCC3)c2)cc1C`, above 30.2 µM.
